Results on 17 molecules are retold here after patent EP0318860B1, “Substituted alkylamine derivatives” (BANYU PHARMACEUTICAL CO., LTD., priority 1987, dated 1989).

SMILES strings stand for the structures. Values after ≈ are worked out from the molar mass of the structure shown. Where a name gives a salt, the structure may show the parent alone. Read-outs that look alike come from different tables or passages of the source.

Assay [1] concerns cholesterol biosynthesis in the cultured Hep-G2 cells. The assay can be described thus: Inhibitory activity on cholesterol biosynthesis in cultured cells ([14C] acetate incorporation). The format is cell-based. Particulars: HepG2; Human hepatoma (Hep-G2) cells, [14C] sodium acetate, 6 hours; read-out: 50% inhibitory concentration (IC₅₀). Here is the method: Human hepatoma (Hep-G2) cells were cultured in 10 cm² dishes until they formed a monolayer. One milliliter of the culture medium was replaced, and 1 µCi of [¹⁴C] sodium acetate and 1 microliter of a dimethyl sulfoxide solution of a test drug were added, and the cells were cultured at 37 °C in air containing 5 % of carbon dioxide for 6 hours.
After the cultivation, the medium was aspirated, and the cells were cooled with ice, and washed with Dulbecco's phosphate buffered saline solution. The resulting cells were scraped by a rubber policeman, and collected by centrifugation. The cells collected were dissolved in 400 microliters of 0.3N sodium hydroxide. A 200 microliters aliquot of the solution was used for extraction, and the remainder, for protein determination.
To 200 microliters of the extracted cells, 15 % ethanolic potassium hydroxide was added, and saponification was carried out at 75 °C for 1 hour. Water (1 ml) was then added, and the mixture was extracted with 2 ml of petroleum ether twice to remove non-saponified materials. The petroleum ether extracts were washed with 1 ml of water, and evaporated under a nitrogen stream. The residue was spotted on a pre-coated silica gel TLC plate using a small amount of chloroform, and developed with hexane/ethyl ether/acetic acid (85:15:4). Cholesterol and squalene portions on the TLC were detected with iodine, and the corresponding TLC portions were cut out. The TLC strips were immersed in a toluene-type scintillator, and radioactivity was counted by a liquid scintillation counter. The results were corrected by the amount of proteins measured by the method described in J. Biol. Chem., vol. 193, page 265, 1951. The 50 % inhibitory concentration (IC₅₀ value) of the compound of the invention on cholesterol biosynthesis in the cultured Hep-G2 cells was calculated.

The target of a further assay is T1, rat squalene epoxidase (Rattus norvegicus, UniProt P52020).
T1 construct: Livers were extracted and homogenized; from tissue; host or cells: liver of SD-strain female rats; microsomes solubilized with 2 % Triton X-100, 105000 x g supernatant
The assay can be described thus: Squalene epoxidase inhibiting activity (3H-squalene to squalene-2,3-epoxide, solubilized liver microsome fraction). The format is biochemical. The settings on record: 8 µM 3H-squalene, 37 °C, 30 minutes, read-out: 50 % inhibitory concentration (IC50). Here is the method: The rat squalene epoxidase was prepared by the method described in J. Biol. Chem., vol.
SD-strain female rats were killed by exsanguination. Livers were extracted and homogenized with in the presence of 2 volumes of 0.1M Tris-HCl buffer (pH 7.5). The homogenate was centrifuged at 9750 Xg for 10 minutes. The supernatant fraction was further centrifuged at 105000 Xg for 1 hour. The sediment was washed with 0.1M Tris-HCl buffer (pH 7.5), and then centrifuged at 105000 Xg for 1 hour. The microsomes obtained were suspended in 0.1M Tris-HCl buffer (pH 7.5) so that the amount of proteins was 40 mg/ml, and under ice cooling, the suspension was stirred in the presence of 2 % Triton X-100 to solubilize the enzyme. After the solubilization, the solution was diluted to a Triton X-100 concentration of 0.5 % with 1 mM EDTA and 1 mM dithiothreitol, and centrifuged at 105000 Xg for 1 hour. The resulting supernatant fraction was used in the following test as a squalene epoxidase fraction.
The squalene epoxidase activity was assayed in accordance with the method described in J. Biol. Chem., vol.
Three microliters of a dimethyl sulfoxide solution of a test drug was added to a solution composed of 0.2 ml of the squalene epoxidase fraction prepared in (1) [proteins 0.4 mg, 0.5 % Triton X-100, […] Tris-HCl buffer (pH 7.5)], 100 µM FAD, 1 mM NADPH, 1 mM EDTA and 8 µM ³H-squalene-Tween 80 emulsion to adjust the total amount of the solution to 0.3 ml. The solution was incubated at 37 °C for 30 minutes with shaking. Then, 0.3 ml of a 10 % methanolic potassium hydroxide was added to stop the reaction, and the reaction mixture was left to stand at room temperature for 1 hour. The non-saponified material was extracted with petroleum ether, and the solvent was evaporated under a nitrogen stream. […] The position of the resulting ³H-squalene-2,3-epoxide on TLC was determined using ergosterol acetate as a marker, and the ³H-squalene-2,3-epoxide portion on the TLC was cut off. The TLC strip was immersed in a toluene-type scintillator, and measured by a liquid scintillation counter.
For orientation: Liver microsomes are vesicles of endoplasmic reticulum, rich in cytochrome P450 enzymes.

The subject of a further assay is Trichophyton. As to the kind of experiment: Antimycotic activity test (Sabouraud's agar dilution, MIC). It counts as cell-based. Particulars: 120 h. How it is done: (§1) Each of the test fungi was cultured (Candida albicans was cultured overnight in Sabouraud broth; Trichophyton was inoculated in Sabouraud's agar and cultured for 2 days, after which the spores were harvested). Thereafter, one platinum loopful of Candida albicans or Trichophyton (10⁶ cells/ml for C. albicans; 10⁶ spores/ml for Trichophyton) was inoculated in Sabouraud's agar containing the test drug in various concentrations, and cultured (at 37 °C for 2 days for C. albicans; at 28 °C for 5 days for Trichophyton). Then, the minimum growth inhibition concentration (MIC) was measured. […]
In general terms: In agar dilution the substance is mixed into plates at graded concentrations.

In another assay the test system is Candida albicans. Described as above. It counts as cell-based. Particulars: 48 h. How it is done:
as §1

The next assay has as its system cholesterol biosynthesis. As to the kind of experiment: Test on inhibition of cholesterol biosynthesis in vivo ([14C] acetate, plasma 14C-cholesterol). The settings on record: male SD rats, 100 mg/kg orally; for ¹⁴C-cholesterol: dpm of 14C-cholesterol present in 1 ml of the plasma; for Inhibition of cholesterol biosynthesis: test group compared with control group. How it is done:
Male SD rats, 5 weeks of age, were used in the in vivo test. The rats were kept for 9 days in an environment of reversed light cycle (i.e., dark between 6:00 am and 6:00 pm). The rats were allowed to take a solid diet and water freely. The test drug was orally administered two hours before dark sixth hour when the cholesterol synthesis reached a maximum. Compounds 6 and 44 were administered as a suspension in a 0.5 % aqueous solution of methyl cellulose. Compound 45 was administered in a 0.5 % aqueous solution of methyl cellulose containing 5 % of dimethyl sulfoxide and 1 % Tween 80. The dose was 1 ml/100 g of body weight.
An equal volume of 0.5 % methyl cellulose was administered to a control group. One hour after administration of the test drug, [¹⁴C] sodium acetate (56 mCi/mmole) was intraperitoneally administered to the rats in a dose of 20 µCi/100 g of body weight. At dark sixth hour, a blood sample was obtained from the abdominal artery under ether anesthesia, and the plasma was separated by centrifugation.
Two milliliters of plasma was mixed with a 15 % methanolic potassium hydroxide and saponified by heating at 75 °C for 3 hours. The resulting sample was extracted with 2 ml of petroleum ether twice. The extracts were washed with 2 ml of distilled water, and finally evaporated under a nitrogen stream. The resulting residue was dissolved in a small amount of ethyl ether, and all the solution was spotted on a pre-coated silica gel TLC plate. The plate was developed with a solvent system composed of hexane/ethyl ether/acetic acid (85:15:4). Color formation was carried out by iodine, and the radioactivity of the cholesterol portion was measured by a liquid scintillation counter.
The results were expressed in dpm of the resulting ¹⁴C-cholesterol present in 1 ml of the plasma. The inhibition of cholesterol biosynthesis was calculated by comparing the amounts of ¹⁴C-cholesterol biosynthesized in the test group and that in the control group.

[2] abbreviates: 28 °C for 5 days, read-out: MIC.
[3] abbreviates: C. albicans, 37 °C for 2 days, read-out: MIC.

T1 sequence (P52020 whole entry): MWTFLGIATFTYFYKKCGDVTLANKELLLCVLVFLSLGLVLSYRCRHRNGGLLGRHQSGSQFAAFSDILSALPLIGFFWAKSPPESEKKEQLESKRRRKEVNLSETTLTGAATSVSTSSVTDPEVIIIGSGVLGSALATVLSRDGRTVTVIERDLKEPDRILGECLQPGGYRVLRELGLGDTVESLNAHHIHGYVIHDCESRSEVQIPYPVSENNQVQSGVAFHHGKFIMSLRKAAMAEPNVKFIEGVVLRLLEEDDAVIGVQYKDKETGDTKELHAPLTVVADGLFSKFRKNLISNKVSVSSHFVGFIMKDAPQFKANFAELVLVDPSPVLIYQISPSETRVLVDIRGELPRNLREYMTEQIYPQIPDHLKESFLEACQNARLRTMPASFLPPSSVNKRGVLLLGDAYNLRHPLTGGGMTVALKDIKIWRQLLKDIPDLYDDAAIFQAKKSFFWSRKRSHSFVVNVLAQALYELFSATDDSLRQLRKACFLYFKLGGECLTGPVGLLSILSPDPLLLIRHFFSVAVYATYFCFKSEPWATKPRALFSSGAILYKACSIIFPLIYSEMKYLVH

With `CN(C/C=C/C#CC(C)(C)C)Cc1cccc(OCc2ccccc2)c1.Cl` [Compound 2, (E)-N-(6,6-dimethyl-2-hepten-4-ynyl)-N-methyl-3-benzyloxybenzylamine hydrochloride], the IC50 turned out to be 1500 nM in assay [1] and 1400 nM on rat squalene epoxidase. Further, the minimum inhibitory concentration (MIC) in the assay with Trichophyton (setting [2]) and with Candida albicans (setting [3]) was > 100 µg/mL each time.
On to `Cc1ccccc1COc1cccc(CN(C)C/C=C/C#CC(C)(C)C)c1.Cl` [Compound 6, (E)-N-(6,6-dimethyl-2-hepten-4-ynyl)-N-methyl-3-(2-methylbenzyloxy)benzylamine hydrochloride], for which the IC50 in assay [1] amounted to 340 nM. For the same molecule, on rat squalene epoxidase, the IC50 was determined as 560 nM. Further, in the assay on cholesterol biosynthesis, the ¹⁴C-cholesterol is 862±387 dpm and the “Inhibition of cholesterol biosynthesis” value is 53%.
As for `CN(C/C=C/C#CC(C)(C)C)Cc1cccc(OCc2cccc3ccccc23)c1` [Compound 18, (E)-N-(6,6-dimethyl-2-hepten-4-ynyl)-N-methyl-3-(1-naphthylmethyloxy)benzylamine], the IC50 at rat squalene epoxidase was determined as 250 nM. The MIC with Trichophyton (setting [2]) and in the assay on Candida albicans (setting [3]) was > 100 µg/mL in each case.
As to `CCN(C/C=C/C#CC(C)(C)C)Cc1cccc(OCc2ccccc2)c1` [Compound 36, (E)-N-(6,6-dimethyl-2-hepten-4-ynyl)-N-ethyl-3-benzyloxybenzylamine hydrochloride], the IC50 in assay [1] came out at 64 nM; at rat squalene epoxidase it was 300 nM.
`CCCN(C/C=C/C#CC(C)(C)C)Cc1cccc(OCc2ccccc2)c1` [Compound 37, (E)-N-(6,6-dimethyl-2-hepten-4-ynyl)-N-propyl-3-benzyloxybenzylamine]: the IC50 in assay [1] is 85 nM; on rat squalene epoxidase, 270 nM.
Consider `CCN(C/C=C/C#CC(C)(C)C)Cc1cccc(OCc2ccccc2C)c1.Cl` [Compound 44, (E)-N-(6,6-dimethyl-2-hepten-4-ynyl)-N-ethyl-3-(2-methylbenzyloxy)benzylamine hydrochloride], for which the IC50 in assay [1] was found to be 50 nM. In addition, the IC50 at rat squalene epoxidase was determined as 160 nM. Besides, in the assay on cholesterol biosynthesis, the ¹⁴C-cholesterol was determined as 568±313 dpm and the “Inhibition of cholesterol biosynthesis” value worked out at 69%.
With `CCN(C/C=C/C#CC(C)(C)C)Cc1cccc(OCc2cccc(C#N)c2)c1` [Compound 46, (E)-N-(6,6-dimethyl-2-hepten-4-ynyl)-N-ethyl-3-(3-cyanobenzyloxy)benzylamine], the results for the IC50 (in assay [1]; at rat squalene epoxidase) were 110 nM and 150 nM, respectively.
Consider `CCCN(C/C=C/C#CC(C)(C)C)Cc1cccc(OCc2cccc(C#N)c2)c1` [Compound 47, (E)-N-(6,6-dimethyl-2-hepten-4-ynyl)-N-propyl-3-(3-cyanobenzyloxy)benzylamine hydrochloride], for which the results for the IC50 (in assay [1]; at rat squalene epoxidase) were 90 nM and 150 nM, respectively.
Take `CC(C)=CCOc1cccc(CN(C)C/C=C/C#CC(C)(C)C)c1` [Compound 61, (E)-N-(6,6-dimethyl-2-hepten-4-ynyl)-N-methyl-3-(3-methyl-2-butenyloxy)benzylamine]: the IC50 at rat squalene epoxidase is 6100 nM. Besides, the minimum inhibitory concentration (MIC) in the assay on Trichophyton (setting [2]) and in the assay with Candida albicans (setting [3]) was > 100 µg/mL each time.
On to `CN(C/C=C/C#CC(C)(C)C)Cc1cccc(OCc2cccc(C#N)c2)c1.Cl` [Compound 64, (E)-N-(6,6-dimethyl-2-hepten-4-ynyl)-N-methyl-3-(3-cyanobenzyloxy)benzylamine hydrochloride], for which the IC50 in assay [1] was 120 nM; at rat squalene epoxidase it was 510 nM. The MIC in the assay with Trichophyton (setting [2]) and in the assay with Candida albicans (setting [3]) was > 100 µg/mL each time.
Take `CN(C/C=C/C#CC(C)(C)C)Cc1cccc(OCc2cccc(-c3cnco3)c2)c1` [Compound 78, (E)-N-(6,6-dimethyl-2-hepten-4-ynyl)-N-methyl-3-[3-(5-oxazolyl)benzyloxy]benzylamine]: the IC50 amounted to 20 nM in assay [1] and 63 nM on rat squalene epoxidase.
In the case of `CN(C/C=C/C#CC(C)(C)C)Cc1cccc(OCc2cccc(-c3cncs3)c2)c1` [Compound 79, (E)-N-(6,6-dimethyl-2-hepten-4-ynyl)-N-methyl-3-[3-(5-thiazolyl)benzyloxy]benzylamine], the IC50 amounted to 23 nM in assay [1] and 89 nM at rat squalene epoxidase.
`CN(C/C=C/C#CC(C)(C)C)Cc1cccc(/C=C/c2ccccc2)c1.Cl` [Compound 97, N-[(E)-6,6-dimethyl-2-hepten-4-ynyl]-N-methyl-3-[(E)-styryl]benzylamine hydrochloride]: the IC50 on rat squalene epoxidase stood at 320 nM. Further, the minimum inhibitory concentration (MIC) with Trichophyton (setting [2]) and in the assay on Candida albicans (setting [3]) was > 100 µg/mL throughout.
For `Cc1ccccc1CNc1cccc(CN(C)C/C=C/C#CC(C)(C)C)c1` [Compound 103, (E)-N-(6,6-dimethyl-2-hepten-4-ynyl)-N-methyl-3-(2-methylbenzylamino)benzylamine hydrochloride], the IC50 worked out at 450 nM in assay [1] and 360 nM at rat squalene epoxidase.
With `CN(C/C=C/C#CC(C)(C)C)Cc1cccc(CCc2ccccc2)c1` [Compound 107, (E)-N-(6,6-dimethyl-2-hepten-4-ynyl)-N-methyl-3-(beta-phenethyl)benzylamine], the IC50 at rat squalene epoxidase is 3600 nM. For the same molecule, the minimum inhibitory concentration (MIC) in the assay with Trichophyton (setting [2]) and in the assay on Candida albicans (setting [3]) was > 100 µg/mL each time.
As for `CN(C/C=C/C#CC(C)(C)C)Cc1cc(OCc2ccccc2)ccn1.Cl.Cl` [Compound 110, (E)-N-(6,6-dimethyl-2-hepten-4-ynyl)-N-methyl-4-benzyloxy-2-pyridylmethylamine dihydrochloride], the IC50 on rat squalene epoxidase came out at 1500 nM. The MIC in the assay with Trichophyton (setting [2]) and in the assay with Candida albicans (setting [3]) was > 100 µg/mL in each case.
In the case of `CN(C/C=C/C#CC(C)(C)C)Cc1cccc2ccccc12` [terbinafine, reference compound], the IC50 on rat squalene epoxidase was > 100000 nM. In addition, the results for the MIC in the assay with Trichophyton and against Candida albicans were < 0.01 µg/mL and 0.3 µg/mL (≈ 1.03 µM), respectively.

The term MIC denotes the lowest concentration that inhibits growth of the organism.
